Experiment: first-order primary biodegradation rate constant k (sorption-corrected, fDis-corrected) (d-1); higher = faster biodegradation
Protocol: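 Modified OECD 309 water-sediment test. River water plus sieved sediment (50 g wet solid/L) from European river segments (DE, CH, ES, EL) was spiked with a mixture of 129 compounds at 1 ug/L each and incubated in the dark at river temperature for 10 days. The water phase was analysed by UHPLC-Orbitrap-MS. The first-order primary biodegradation rate constant k (d-1) is k_observed, corrected for dissipation in sterile sorption controls and divided by the dissolved fraction fDis; it was fitted over 3 replicate incubations. Invalid fits (p > 0.05, n < 5, not available, concentration increase) are excluded.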

[1] = river segment: Germany (DE) T_Contam, incubation temperature 24 °C
[2] = river segment: Germany (DE) T_Pris, incubation temperature 24 °C
[3] = river segment: Greece (EL) A_Contam, incubation temperature 19 °C
[4] = river segment: Greece (EL) G_Contam, incubation temperature 19 °C
[5] = river segment: Greece (EL) L_Contam, incubation temperature 19 °C
[6] = river segment: Spain (ES) C_Contam, incubation temperature 24 °C
[7] = river segment: Spain (ES) L_Contam, incubation temperature 24 °C
[8] = river segment: Germany (DE) H_Contam, incubation temperature 24 °C
[9] = river segment: Greece (EL) G_Pris, incubation temperature 19 °C
[10] = river segment: Spain (ES) B_Contam, incubation temperature 24 °C
[11] = river segment: Spain (ES) F_Pris_Salt, incubation temperature 24 °C
[12] = river segment: Switzerland (CH) U_Contam, incubation temperature 17 °C
[13] = river segment: Switzerland (CH) U_Pris, incubation temperature 17 °C
[14] = river segment: Switzerland (CH) C_Contam, incubation temperature 17 °C
[15] = river segment: Switzerland (CH) R_Contam, incubation temperature 17 °C

Row | first-order primary biodegradation rate constant k [3] | first-order primary biodegradation rate constant k [4] | first-order primary biodegradation rate constant k [5] | first-order primary biodegradation rate constant k [6] | first-order primary biodegradation rate constant k [15] | SMILES | first-order primary biodegradation rate constant k [1] | first-order primary biodegradation rate constant k [2] | first-order primary biodegradation rate constant k [7] | first-order primary biodegradation rate constant k [8] | first-order primary biodegradation rate constant k [9] | first-order primary biodegradation rate constant k [10] | first-order primary biodegradation rate constant k [11] | first-order primary biodegradation rate constant k [12] | first-order primary biodegradation rate constant k [13] | first-order primary biodegradation rate constant k [14]
1 | 0.228 | 0.0658 | 0.0674 | 1.31 | – | O=C(NCC1CCCCN1)c1cc(OCC(F)(F)F)ccc1OCC(F)(F)F (stereo unspecified) [Flecainide] | 0.116 | 0.0199 | 0.0814 | – | – | – | – | – | – | –
2 | – | 0.0886 | – | 0.539 | 0.251 | CC(C)NCC(O)COc1cccc2ccccc12 (stereo unspecified) [Propranolol] | – | 0.118 | 0.303 | 0.231 | 0.0227 | 0.309 | 0.0162 | 0.246 | 0.29 | 0.0688
3 | 0.821 | – | – | – | 0.0625 | NC(=O)c1cccnc1 [Nicotinamide] | – | – | – | – | – | – | – | – | – | –
4 | 0.258 | 0.16 | 0.096 | 0.115 | 0.123 | Cc1ccc(C(C)NC(=O)[C@@H](NC(=O)OC(C)C)C(C)C)cc1 (stereo partly specified) [Iprovalicarb] | 0.275 | 0.0361 | 0.203 | 0.251 | 0.138 | 0.211 | – | 0.167 | 0.146 | 0.0585
5 | – | 0.311 | 0.0588 | – | – | OC(Cn1cncn1)(Cn1cncn1)c1ccc(F)cc1F [Fluconazole] | 0.00573 | – | – | 0.024 | – | – | – | 0.00361 | – | –

Row | SMILES | first-order primary biodegradation rate constant k [3] | first-order primary biodegradation rate constant k [4] | first-order primary biodegradation rate constant k [5] | first-order primary biodegradation rate constant k [6] | first-order primary biodegradation rate constant k [15] | first-order primary biodegradation rate constant k [1] | first-order primary biodegradation rate constant k [2] | first-order primary biodegradation rate constant k [7] | first-order primary biodegradation rate constant k [8] | first-order primary biodegradation rate constant k [9] | first-order primary biodegradation rate constant k [10] | first-order primary biodegradation rate constant k [11] | first-order primary biodegradation rate constant k [12] | first-order primary biodegradation rate constant k [13] | first-order primary biodegradation rate constant k [14]
6 | COC(=O)Nc1nc2ccccc2[nH]1 [Carbendazim] | 0.1 | – | – | 0.00806 | – | 0.155 | 0.00648 | 0.0322 | 0.0157 | 0.0594 | 0.0208 | 0.03 | 0.0106 | 0.0192 | –
7 | CCc1cccc(CC)c1N(COC)C(=O)CCl [Alachlor] | – | – | 0.568 | – | 0.223 | 0.612 | 0.105 | 0.12 | 0.0727 | 0.387 | 0.115 | – | 0.349 | – | 0.0903
8 | Cc1cc(Cl)ccc1OC(C)C(=O)O (stereo unspecified) [Mecoprop] | 0.155 | 0.021 | 0.0787 | 0.159 | 0.201 | 0.267 | 0.0247 | 0.0286 | 0.0948 | 0.0919 | 0.0613 | 0.0616 | 0.163 | 0.417 | 0.0712
